Measurements as given in patent publication US6387938B1, “Benzimidazole derivatives” (Mochida Pharmaceutical Co., Ltd., priority 1996, dated 2002).

Assays:
BALB/c male mice = test: Toxicity test in mice, repeated oral dosing; format: in vivo
SD female rats = test: Toxicity test in rats, 14 days oral dosing; format: in vivo; conditions: 0.5% HPMC suspension, 300 mg/kg/day for 14 days
Experimental: SD female rats were orally treated with the compounds of Inventive Examples 54 and 55 suspended in 0.5% aqueous solution of HPMC at a dose of 300 mg/kg/day for 14 days.

[1] = Hydrolysis of the ester bond in the rat; format: in vivo
[2] = tested on: IFN-γ production of the spleen cell; test: Action of IFN-γ production enhancement in tumor-bearing mouse; format: in vivo; conditions: B16F10 tumor-bearing C57BL/6 mouse, oral day 7 to day 21, spleen cells cultivated 24 hours with no stimulation, EIA, N = 7
Experimental: B16F10 cells cultivated in DMEM (Dulbecco's medium) supplemented with 10% FCS (fetal calf serum) were treated with trypsin, washed with PBS (phosphate buffered saline, pH 7.4), and adjusted in PBS to 1×10^7 cells/ml. The cells were subcutaneously injected in the abdomen of male C57BL/6 mouse (7 week old; body weight, about 23 g) at a dose of 0.1 ml/mouse. The day of tumor inoculation was designated day 0, and the tumor diameter was measured at day 7 with a vernier caliper. The tumor volume was calculated in terms of (minor diameter)^2×(major diameter), and the mice were grouped by using this value and the body weight for the indexes. […] The test compound was orally administered from day 7 to day 21. The solvent used was 0.5% HPMC (Hydroxy propyl methyl cellurose), and the control group was administered only with the solvent. At day 22, the mice were decapitated and the spleens were removed. After weighing the organs, the spleen was homogenized with a glass homogenizer, adjusted to 5×10^6 cells/ml, and cultivated in S-Clone SF-B medium (Sanko Pure Chemicals). The culture supernatant was collected after 24 hours, and […] at −80° C. The supernatant was measured for its IFN-γ concentration (pg/mL) by EIA (Enzyme Immunoassay). The measurement was conducted with an assay kit of ENDOGEN.

[3] = tested on: intraperitoneal eosinophilia; test: Action on intraperitoneal eosinophilia model mice; format: in vivo, BALB/c male mice; conditions: BALB/c mice sensitized with swine roundworm extract; oral once a day, 10 times; dose 10 mg/kg/day
Experimental: Using five animals per group of BALB/c male mice (about 25 g in body weight), 0.11 mL of physiological saline containing 0.1 mg of swine roundworm extract was administered into the peritoneal cavity of each mouse to sensitize. The same treatment was repeated 7 days after the administration and, 3 days thereafter, each animal was sacrificed by phlebotomy, 3 mL of physiological saline containing 1% dipotassium ethylenediaminetetraacetate (EDTA) was administered by intraperitoneal injection and its abdominal region was massaged for about 30 seconds. […] A portion of the cell suspension was daubed on a slide glass using a spinner to carry out Diff-Quik staining, and then total leukocytes and eosinophils were counted to calculate the ratio of eosinophils in the total leukocytes. The number of total leukocytes in the cell suspension was measured using an automatic blood cell counter. The number of eosinophils in the cell suspension was calculated by multiplying the ratio of eosinophils in the total leukocytes by the number of total leukocytes. […] The dose of each compound to be tested and the intraperitoneal eosinophilia inhibition rate calculated by the following formula are shown in Table 1. […]

[4] = 0.5% HPMC suspension, 100 mg/kg/day for 4 days
[5] = 5% acacia suspension, 100 mg/kg/day for 7 days, observed for 3 days after administration

| Compound | Abnormality in body weight and general symptoms (BALB/c male mice; [4]) | Mortality (BALB/c male mice; [4]) | Abnormality in body weight and general symptoms (BALB/c male mice; [5]) | Mortality (BALB/c male mice; [5]) | other results |
| --- | --- | --- | --- | --- | --- |
| CCOC(=O)CC(O)c1cccc2nc(CCc3ccccc3)[nH]c12 (stereo not drawn) [compound 54] | no abnormality | No mortal case | – | – | Relative liver weight (SD female rats): significant increase; Ester bond hydrolysis to generate carboxyl group [1]: hydrolyzed |
| O=C(O)CC(=O)c1cccc2nc(CCc3ccccc3)[nH]c12 [compound 1] | – | – | no abnormality | no mortal case | – |
| CCOC(=O)CC(O)c1cccc2nc(CCc3ccccc3)[nH]c12 (stereo not drawn) [compound 6] | no abnormality | No mortal case | – | – | IFN-γ concentration ([2]; dose 10 mg/kg/day): 125 pg/mL; IFN-γ concentration ([2]; dose 30 mg/kg/day): 194 pg/mL; IFN-γ concentration ([2]; dose 100 mg/kg/day): 263 pg/mL |
| COC(=O)CC(O)c1cccc2nc(CCc3ccccc3)[nH]c12 (stereo not drawn) [compound 5] | – | – | no abnormality | no mortal case | – |
| CCOC(=O)CC(=O)c1cccc2nc(CCc3ccccc3)[nH]c12 [compound 3] | – | – | – | – | Intraperitoneal eosinophilia inhibition rate (%) [3]: 67% |
| O=C(O)CC(O)c1cccc2nc(CCc3ccccc3)[nH]c12 (stereo not drawn) | – | – | – | – | melting point: 103 to 105.3 °C |
| CCOC(=O)CC(O)c1cccc2nc(CCc3ccccc3)[nH]c12 (stereo not drawn) [compound 55] | no abnormality | No mortal case | – | – | Relative liver weight (SD female rats): no such increase; Ester bond hydrolysis to generate carboxyl group [1]: hydrolyzed |
| CCOC(=O)CC(=O)c1cccc2c1nc(CCc1ccccc1)n2C [compound 10] | – | – | no abnormality | no mortal case | – |
| COC(=O)CC(=O)c1cccc2nc(CCc3ccccc3)[nH]c12 [compound 2] | – | – | no abnormality | no mortal case | – |
| O=C(O)CC(O)c1cccc2nc(CCc3ccccc3)[nH]c12 (stereo not drawn) [compound 7] | no abnormality | No mortal case | no abnormality | no mortal case | – |
